Test results as given in US8420569B2, “Pesticidal mixtures” (BASF SE, priority 2006, dated 2013).

Assays:
Format in all cases: in vivo
[1] = test system: vetch aphid (Megoura viciae); test: control of vetch aphid through contact or systemic means, broad bean leaf disks in 24-well microtiter plates; conditions: sprayed on leaf disks, 5 days, mortality and fecundity
Description: (§1) The analysis of synergism or antagonism between the mixtures or compositions was determined using Colbys equation.
For evaluating control of vetch aphid (Megoura viciae) through contact or systemic means the test unit consisted of 24-well-microtiter plates containing broad bean leaf disks.
The compounds or mixtures were formulated using a solution containing 75% water and 25% DMSO. Different concentrations of formulated compounds or mixtures were sprayed onto the leaf disks at 2.5 μl, using a custom built micro atomizer, at two replications.
(§2) For experimental mixtures in these tests identical volumes of both mixing partners at the desired concentrations respectively, were mixed together.
After application, the leaf disks were air-dried and 5-8 adult aphids placed on the leaf disks inside the microtiter plate wells. The aphids were then allowed to suck on the treated leaf disks and incubated at 23+1° C., 50+5% RH for 5 days. Aphid mortality and fecundity was then visually assessed.
In this test the compound 1-2, and N-(3′,4′-dichloro-5-fluorobiphenyl-2-yl)-3-difluoro-methyl-1-methylpyrazole-4-carboxamide (compound 2.1), and 5-chloro-7-(4-methyl-piperidin-1-yl)-6-(2,4,6-trifluorophenyl)-[1,2,4]triazolo[1,5-a]pyrimidine (compound 2.2) were used.

[2] = test system: green peach aphid (Myzus persicae); test: control of green peach aphid through systemic means, artificial diet under membrane in 96-well microtiter plates; conditions: pipetted into aphid diet, 3 days, mortality and fecundity
Description: as §1
For evaluating control of green peach aphid (Myzus persicae) through systemic means the test unit consisted of 96-well-microtiter plates containing liquid artificial diet under an artificial membrane.
The compounds or mixtures were formulated using a solution containing 75% water and 25% DMSO. Different concentrations of formulated compounds or mixtures were pipetted into the aphid diet, using a custom built pipetter, at two replications.
as §2
After application, 5 to 8 adult aphids were placed on the artificial membrane inside the microtiter plate wells. The aphids were then allowed to suck on the treated aphid diet and incubated at 23+1° C., 50+5% RH for 3 days. Aphid mortality and fecundity was then visually assessed.
In this test the compound 1-2, and 5-chloro-7-(4-methylpiperidin-1-yl)-6-(2,4,6-trifluoro-phenyl)-[1,2,4]triazolo[1,5-a]pyrimidine (compound 2.2) and N-[2-(1,1,2,3,3,3-hexa-fluoropropoxy)-phenyl]-3-difluoromethyl-1-methyl-1H-pyrazole-4-carboxamide (compound 3.1) were used.

[3] = test system: boll weevil (Anthonomus grandis); test: control of boll weevil, insect diet with eggs in 24-well microtiter plates; conditions: sprayed onto insect diet, 5 days, egg and larval mortality
Description: as §1
For evaluating control of boll weevil (Anthonomus grandis) the test unit consisted of 24-well-microtiter plates containing an insect diet and 20-30 A. grandis eggs.
The compounds or mixtures were formulated using a solution containing 75% water and 25% DMSO. Different concentrations of formulated compounds or mixtures were sprayed onto the insect diet at 20 μl, using a custom built micro atomizer, at two replications.
as §2
After application, microtiter plates were incubated at 23+1° C., 50+5% RH for 5 days. Egg and larval mortality was then visually assessed.
In this test the compound I-2 and N-[2-(1,1,2,3,3,3-hexafluoropropoxy)-phenyl]-3-difluoromethyl-1-methyl-1H-pyrazole-4-carboxamide (compound 3.1), and N-(3′,4′,5′-trifluorobiphenyl-2-yl)-1-methyl-3-difluoromethyl-1H-pyrazole-4-carboxamide (compound 3.2) were used.

Q: How did the “Average Control %” value ([1]; 1000 ppm) turn out when `Cn1cc(C(=O)Nc2ccc(F)cc2-c2ccc(Cl)c(Cl)c2)c(C(F)F)n1` [2.1, N-(3′,4′-dichloro-5-fluorobiphenyl-2-yl)-3-difluoro-methyl-1-methylpyrazole-4-carboxamide] was run?
A: 0%

Q: Which “Average Control %” value ([2]; 8 ppm) does the source give for `CC1CCN(c2c(-c3c(F)cc(F)cc3F)c(Cl)nc3ncnn23)CC1` [2.2, 5-chloro-7-(4-methyl-piperidin-1-yl)-6-(2,4,6-trifluorophenyl)-[1,2,4]triazolo[1,5-a]pyrimidine] here?
A: 0%

Q: And the “Average Control %” value ([1]; 40 ppm)?
A: 0%

Q: How did the “Average Control %” value ([3]; 200 ppm) turn out when `Cn1cc(C(=O)Nc2ccccc2-c2cc(F)c(F)c(F)c2)c(C(F)F)n1` [3.2, N-(3′,4′,5′-trifluorobiphenyl-2-yl)-1-methyl-3-difluoromethyl-1H-pyrazole-4-carboxamide] was run?
A: 50%

Q: How did the “Average Control %” value ([2]; 0.5 ppm) turn out when `CNC(=O)c1cc(C#N)cc(C)c1NC(=O)c1cc(Br)nn1-c1ncccc1Cl` [I-2] was run?
A: 0%

Q: What about the “Average Control %” value ([3]; 0.5 ppm) of the same compound?
A: 0%

Q: And the “Average Control %” value ([1]; 0.5 ppm)?
A: 0%

Q: And the “Average Control %” value ([1]; 2.5 ppm)?
A: 0%

Q: `Cn1cc(C(=O)Nc2ccccc2OC(F)(F)C(F)C(F)(F)F)c(C(F)F)n1` (stereo not shown) [3.1, N-[2-(1,1,2,3,3,3-hexafluoropropoxy)-phenyl]-3-difluoromethyl-1-methyl-1H-pyrazole-4-carboxamide] was tested. Which “Average Control %” value ([2]; 1000 ppm) did it give?
A: 0%

Q: What about the “Average Control %” value ([3]; 40 ppm) of the same compound?
A: 0%
